The text below walks through data of patent publication US12035717B1, “2-OXO-2-({2-[(phenylcarbamoyl)oxy]ethyl} amino)ethyl phenylcarbamate as an eco-friendly insecticidal agent against spodoptera littoralis (boisd.)” (priority 2024, dated 2024).

Broadly, the LC50 is the concentration that kills 50% of the test population.

The data set deals with Spodoptera littoralis larvae (laboratory strain of cotton leafworm). The data set is described as follows: Insecticidal leaf dip bioassay on S. littoralis larvae. The note with it: for LC50: after 72 hours of treatment, castor leaf dip; for Toxicity index % / Toxicity ratio: 72 hours; for Toxicity index %: fenoxycarb = 100; for Toxicity ratio: fenoxycarb's LC50/compound's LC50 * 100.

[1] abbreviates: Spodoptera littoralis, in Gossypium hirsutum, foliar, 72 h, 4th instar larvae.
Where [2] appears, read: Spodoptera littoralis, in Gossypium hirsutum, foliar, 72 h, 2nd instar larvae.

In brackets after ≈: the same amount, converted by molar mass.

Experimental: Five concentrations (200, 100, 50, 25, 12.5 ppm) were designed for this synthetic compound and the reference fenoxycarb's compound as the dynamic ingredients based on ppm via diluting the commercial formulation.
In this experiment, the synthetic compound was tested for its insecticidal bioactivity using the industry-standard leaf dip bioassay techniques. […] Until usage, the stocks were kept in a refrigerator. The target substance test results were noted & the concentrations needed to destroy 50% (LC50) of S. littoralis larvae were calculated. The target compound was employed in five different concentrations, & 0.1% Tween 80 was employed as a surfactant. Castor bean leaf discs (nine centimeters in diameter) were dipped in the concentration under test for ten seconds, then fed to 2th & 4th larvae, which were roughly the same size and housed in glass jars (five pound). Each action carried out 3 times with ten larvae each. The mortality equalized via Abbott's formula. Calculations of mortality setback line were measurably rummage via probity analysis. Harmfulness index was strongminded via sun equations. The mortality results of larval insect were estimated through employing probit analysis through a statistics (LDP-line) equation which estimate the LC50 values with 95% fiducially limits of lower, upper confidence limit and slope.

Consider `O=C(COC(=O)Nc1ccccc1)NCCOC(=O)Nc1ccccc1` [2-oxo-2-({2-[(phenylcarbamoyl)oxy]ethyl}amino)ethyl phenylca] [2-oxo-2-({2-[(phenylcarbamoyl)oxy]ethyl}amino)ethyl phenylcarbamate], for which the LC50 entry (2nd instar larvae) is “about 14.80 mg/L”.

Consider `O=C(COC(=O)Nc1ccccc1)NCCOC(=O)Nc1ccccc1` [2-oxo-2-({2-[(phenylcarbamoyl)oxy]ethyl}amino)ethyl phenylcarbamate], for which the 50% lethal concentration (LC50) under setting [1] was ~81 µg/mL (≈ 227 µM).

Under “2nd instar larvae”, `O=C(COC(=O)Nc1ccccc1)NCCOC(=O)Nc1ccccc1` [Compound 2, 2-oxo-2-({2-[(phenylcarbamoyl)oxy]ethyl}amino)ethyl phenylcarbamate] had a Toxicity index % of 40.13%. Under “4th instar larvae”, the Toxicity ratio came out at 73.98 and the LC50 came out at 80.98 µg/mL (≈ 227 µM). This compound also showed a median lethal concentration (LC50) under setting [2] of 14.8 µg/mL (≈ 41.4 µM). The “Activity against Spodoptera littoralis (in words)” value (summary of Table 1 data) is given as “active against Spodoptera littoralis”.

Turning to `CCOC(=O)NCCOc1ccc(Oc2ccccc2)cc1` [Fenoxycarb, reference compound], the Toxicity index % (2nd instar larvae) was 100%. Moreover, the Toxicity ratio (4th instar larvae) was 100. Further, the median lethal concentration (LC50) stood at 5.94 µg/mL (≈ 19.7 µM) under setting [2] and 59.9 µg/mL (≈ 199 µM) under setting [1].
